Read-outs that look alike come from different tables or passages of the source.
Key:
Assay in all cases: biochemical
Set-up in all cases: KINOMEscan active site-directed competition binding assay (DiscoveRx), 456 kinases, per cent of control at 300 nM
Details in all cases: read-out: Percent of Control (%)
[1] = biological target: AKT3 (Homo sapiens, UniProt Q9Y243)
In short: (§1)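 Values reflect active-site competition binding from a screen of 456 kinases, with test compounds at a fixed 300 nmol/L.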

[2] = biological target: CDK2 (Homo sapiens, UniProt P24941)
In short: as §1

[3] = biological target: EGFR(G719C) (Homo sapiens, UniProt P00533, G719C)
In short: as §1

[4] = biological target: EPHA1 (Homo sapiens, UniProt P21709)
In short: as §1

[5] = biological target: T1, ERK8 (Homo sapiens, UniProt Q8TD08)
T1 construct: gene MAPK15
In short: as §1

[6] = biological target: FGR (Homo sapiens, UniProt P09769)
In short: as §1

[7] = biological target: T2, GCN2(Kin.Dom.2,S808G) (Homo sapiens, UniProt Q9P2K8, S808G)
T2 construct: gene EIF2AK4; Kin.Dom.2
In short: as §1

[8] = biological target: HCK (Homo sapiens, UniProt P08631)
In short: as §1

[9] = biological target: IGF1R (Homo sapiens, UniProt P08069)
In short: as §1

[10] = biological target: T3, MEK1 (Homo sapiens, UniProt Q02750)
T3 construct: gene MAP2K1
In short: as §1

[11] = biological target: T4, MRCKB (Homo sapiens, UniProt Q9Y5S2)
T4 construct: gene CDC42BPB
In short: as §1

[12] = biological target: MYLK4 (Homo sapiens, UniProt Q86YV6)
In short: as §1

[13] = biological target: PAK6 (Homo sapiens, UniProt Q9NQU5)
In short: as §1

[14] = biological target: T5, PAK7 (Homo sapiens, UniProt Q9P286)
T5 construct: gene PAK5
In short: as §1

[15] = biological target: PIK3CA(H1047L) (Homo sapiens, UniProt P42336, H1047L)
In short: as §1

[16] = biological target: PIK3CA(I800L) (Homo sapiens, UniProt P42336, I800L)
In short: as §1

[17] = biological target: PIM2 (Homo sapiens, UniProt Q9P1W9)
In short: as §1

[18] = biological target: PIP5K1C (Homo sapiens, UniProt O60331)
In short: as §1

[19] = biological target: PLK4 (Homo sapiens, UniProt O00444)
In short: as §1

[20] = biological target: TAOK3 (Homo sapiens, UniProt Q9H2K8)
In short: as §1

[21] = biological target: TGFBR1 (Homo sapiens, UniProt P36897)
In short: as §1

[22] = biological target: VRK2 (Homo sapiens, UniProt Q86Y07)
In short: as §1

T2 sequence (Q9P2K8 whole entry S808G): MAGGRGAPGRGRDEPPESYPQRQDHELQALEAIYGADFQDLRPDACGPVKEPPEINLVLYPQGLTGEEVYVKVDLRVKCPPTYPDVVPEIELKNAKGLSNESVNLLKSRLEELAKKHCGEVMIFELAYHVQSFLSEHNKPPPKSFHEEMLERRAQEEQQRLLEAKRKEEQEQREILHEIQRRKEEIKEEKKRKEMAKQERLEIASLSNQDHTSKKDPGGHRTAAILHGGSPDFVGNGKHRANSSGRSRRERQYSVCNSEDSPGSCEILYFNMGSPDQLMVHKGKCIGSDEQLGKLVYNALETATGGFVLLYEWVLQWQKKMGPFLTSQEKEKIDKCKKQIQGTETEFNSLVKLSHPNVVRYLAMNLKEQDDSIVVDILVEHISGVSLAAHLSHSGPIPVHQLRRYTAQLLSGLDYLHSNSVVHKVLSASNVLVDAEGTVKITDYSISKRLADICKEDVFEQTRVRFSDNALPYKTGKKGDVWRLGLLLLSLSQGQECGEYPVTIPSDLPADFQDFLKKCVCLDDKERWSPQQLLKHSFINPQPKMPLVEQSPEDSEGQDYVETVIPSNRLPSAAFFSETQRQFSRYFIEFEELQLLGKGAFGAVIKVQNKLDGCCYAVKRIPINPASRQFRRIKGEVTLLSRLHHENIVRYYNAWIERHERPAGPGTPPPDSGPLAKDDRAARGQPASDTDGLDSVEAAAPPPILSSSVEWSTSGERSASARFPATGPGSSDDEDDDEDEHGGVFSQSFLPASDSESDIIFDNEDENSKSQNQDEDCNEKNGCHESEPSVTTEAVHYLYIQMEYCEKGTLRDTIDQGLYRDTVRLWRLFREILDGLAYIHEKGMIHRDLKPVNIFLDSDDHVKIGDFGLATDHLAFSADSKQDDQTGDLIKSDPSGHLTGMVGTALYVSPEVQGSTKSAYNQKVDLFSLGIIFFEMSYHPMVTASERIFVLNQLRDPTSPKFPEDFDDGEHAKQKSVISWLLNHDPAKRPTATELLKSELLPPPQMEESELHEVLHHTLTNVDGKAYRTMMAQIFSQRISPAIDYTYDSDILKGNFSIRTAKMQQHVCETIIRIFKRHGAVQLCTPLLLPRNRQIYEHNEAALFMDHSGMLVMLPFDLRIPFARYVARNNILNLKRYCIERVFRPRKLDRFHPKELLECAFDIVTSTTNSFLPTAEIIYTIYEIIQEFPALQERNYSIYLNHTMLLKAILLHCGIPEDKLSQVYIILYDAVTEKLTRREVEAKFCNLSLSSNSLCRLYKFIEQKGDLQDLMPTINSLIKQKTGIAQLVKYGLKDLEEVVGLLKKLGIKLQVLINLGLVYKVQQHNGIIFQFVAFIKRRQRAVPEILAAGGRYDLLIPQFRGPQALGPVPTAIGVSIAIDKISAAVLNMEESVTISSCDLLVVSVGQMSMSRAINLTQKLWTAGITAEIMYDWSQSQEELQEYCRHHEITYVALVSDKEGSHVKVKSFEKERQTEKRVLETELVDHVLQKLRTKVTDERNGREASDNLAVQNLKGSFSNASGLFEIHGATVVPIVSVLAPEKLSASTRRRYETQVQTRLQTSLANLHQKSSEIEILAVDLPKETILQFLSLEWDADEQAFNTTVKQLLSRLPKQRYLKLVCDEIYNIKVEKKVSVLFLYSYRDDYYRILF
T1 sequence (Q8TD08 whole entry): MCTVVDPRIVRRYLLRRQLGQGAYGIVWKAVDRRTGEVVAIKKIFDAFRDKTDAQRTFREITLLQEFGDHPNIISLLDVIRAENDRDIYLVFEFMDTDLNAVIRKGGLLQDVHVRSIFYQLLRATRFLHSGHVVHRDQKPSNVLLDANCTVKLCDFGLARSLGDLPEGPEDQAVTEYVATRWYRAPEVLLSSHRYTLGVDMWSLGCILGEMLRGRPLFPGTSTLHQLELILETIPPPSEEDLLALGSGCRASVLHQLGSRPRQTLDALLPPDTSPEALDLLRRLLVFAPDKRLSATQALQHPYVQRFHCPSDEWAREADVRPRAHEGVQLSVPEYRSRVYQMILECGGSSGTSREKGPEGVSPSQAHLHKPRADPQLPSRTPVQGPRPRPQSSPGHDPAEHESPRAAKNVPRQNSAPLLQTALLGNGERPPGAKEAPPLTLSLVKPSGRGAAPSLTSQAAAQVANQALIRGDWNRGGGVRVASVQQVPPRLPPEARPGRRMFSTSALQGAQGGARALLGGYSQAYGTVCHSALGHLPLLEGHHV
Sequence of IGF1R (P08069 whole entry): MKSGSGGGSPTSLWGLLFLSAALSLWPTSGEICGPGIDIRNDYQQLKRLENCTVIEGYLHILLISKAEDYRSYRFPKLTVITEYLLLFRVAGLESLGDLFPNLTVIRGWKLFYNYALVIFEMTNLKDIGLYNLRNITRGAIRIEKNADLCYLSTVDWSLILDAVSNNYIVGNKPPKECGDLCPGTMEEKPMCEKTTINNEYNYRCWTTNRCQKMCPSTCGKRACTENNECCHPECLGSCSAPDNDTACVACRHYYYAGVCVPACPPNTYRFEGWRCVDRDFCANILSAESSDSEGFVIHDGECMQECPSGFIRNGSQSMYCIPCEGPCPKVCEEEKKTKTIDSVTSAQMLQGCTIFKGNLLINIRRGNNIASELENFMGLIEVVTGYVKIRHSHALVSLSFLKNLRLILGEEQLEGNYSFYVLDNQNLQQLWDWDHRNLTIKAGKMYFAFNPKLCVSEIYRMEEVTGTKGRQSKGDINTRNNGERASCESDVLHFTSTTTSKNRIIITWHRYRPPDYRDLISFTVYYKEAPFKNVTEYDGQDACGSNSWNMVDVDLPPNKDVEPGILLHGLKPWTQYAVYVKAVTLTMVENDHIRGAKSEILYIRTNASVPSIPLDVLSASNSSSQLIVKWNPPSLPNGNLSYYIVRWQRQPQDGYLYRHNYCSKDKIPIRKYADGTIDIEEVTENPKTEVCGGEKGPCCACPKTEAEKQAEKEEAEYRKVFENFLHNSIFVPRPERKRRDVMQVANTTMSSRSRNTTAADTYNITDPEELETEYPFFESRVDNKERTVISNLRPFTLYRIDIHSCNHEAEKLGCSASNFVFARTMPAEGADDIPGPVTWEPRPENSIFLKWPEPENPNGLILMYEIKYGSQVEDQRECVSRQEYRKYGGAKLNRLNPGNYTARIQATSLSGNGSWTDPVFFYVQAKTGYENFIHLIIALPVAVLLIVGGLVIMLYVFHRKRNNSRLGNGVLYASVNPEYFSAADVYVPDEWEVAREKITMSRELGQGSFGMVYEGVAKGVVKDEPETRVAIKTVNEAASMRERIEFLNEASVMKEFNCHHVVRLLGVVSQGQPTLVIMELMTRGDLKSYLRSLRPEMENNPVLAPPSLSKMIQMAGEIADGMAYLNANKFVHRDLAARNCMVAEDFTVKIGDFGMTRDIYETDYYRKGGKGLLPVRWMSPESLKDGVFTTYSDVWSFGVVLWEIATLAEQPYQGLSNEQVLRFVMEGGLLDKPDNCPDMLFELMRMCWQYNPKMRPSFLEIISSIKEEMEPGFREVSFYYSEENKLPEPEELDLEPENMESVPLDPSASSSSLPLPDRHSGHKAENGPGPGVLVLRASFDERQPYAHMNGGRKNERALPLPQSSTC
Sequence of PIK3CA(H1047L) (P42336 whole entry H1047L): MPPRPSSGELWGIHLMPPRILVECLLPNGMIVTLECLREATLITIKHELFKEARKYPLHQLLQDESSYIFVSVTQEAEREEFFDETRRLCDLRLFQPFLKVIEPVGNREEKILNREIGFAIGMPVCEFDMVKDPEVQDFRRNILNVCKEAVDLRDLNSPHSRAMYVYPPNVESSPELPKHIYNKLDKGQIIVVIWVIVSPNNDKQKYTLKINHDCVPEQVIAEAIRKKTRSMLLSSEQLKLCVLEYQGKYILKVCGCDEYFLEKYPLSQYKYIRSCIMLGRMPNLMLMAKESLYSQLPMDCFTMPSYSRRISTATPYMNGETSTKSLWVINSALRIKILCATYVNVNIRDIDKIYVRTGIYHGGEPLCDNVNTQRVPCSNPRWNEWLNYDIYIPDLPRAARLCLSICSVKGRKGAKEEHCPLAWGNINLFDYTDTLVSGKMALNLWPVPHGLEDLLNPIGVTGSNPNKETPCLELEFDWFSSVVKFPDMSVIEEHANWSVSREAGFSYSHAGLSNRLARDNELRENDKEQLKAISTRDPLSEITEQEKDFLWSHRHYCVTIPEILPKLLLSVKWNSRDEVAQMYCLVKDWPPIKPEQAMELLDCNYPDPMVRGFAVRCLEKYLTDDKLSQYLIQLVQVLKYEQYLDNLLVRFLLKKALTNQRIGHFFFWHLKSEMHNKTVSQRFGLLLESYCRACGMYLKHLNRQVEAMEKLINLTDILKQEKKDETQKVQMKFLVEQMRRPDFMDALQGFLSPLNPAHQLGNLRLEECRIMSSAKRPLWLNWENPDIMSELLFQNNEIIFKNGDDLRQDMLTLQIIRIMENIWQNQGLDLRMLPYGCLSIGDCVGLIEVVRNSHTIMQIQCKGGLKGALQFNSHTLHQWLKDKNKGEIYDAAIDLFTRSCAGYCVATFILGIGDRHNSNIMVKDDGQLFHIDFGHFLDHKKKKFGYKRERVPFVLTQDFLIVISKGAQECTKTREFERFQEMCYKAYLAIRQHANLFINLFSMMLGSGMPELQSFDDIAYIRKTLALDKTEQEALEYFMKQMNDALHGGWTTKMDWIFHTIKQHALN
Sequence of PIK3CA(I800L) (P42336 whole entry I800L): as the sequence (P42336 whole entry H1047L) above, with I800L, L1047H counted along it
Sequence of PIM2 (Q9P1W9 whole entry): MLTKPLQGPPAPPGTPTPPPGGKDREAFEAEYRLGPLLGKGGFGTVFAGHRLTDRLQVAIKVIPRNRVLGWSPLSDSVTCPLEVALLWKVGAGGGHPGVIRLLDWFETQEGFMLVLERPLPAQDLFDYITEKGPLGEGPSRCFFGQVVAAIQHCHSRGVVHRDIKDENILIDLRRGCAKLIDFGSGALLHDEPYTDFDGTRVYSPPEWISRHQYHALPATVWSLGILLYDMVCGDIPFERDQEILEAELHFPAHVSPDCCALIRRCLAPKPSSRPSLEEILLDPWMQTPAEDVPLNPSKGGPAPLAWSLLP

SMILES: Cc1ncccc1Oc1sc(C(N)=O)c2c1-c1c(cnn1C)CC2 [T-474, 1-methyl-8-((2-methylpyridin-3-yl)oxy)-4,5-dihydro-1H-thieno[3,4-g]indazole-6-carboxamide]
- remaining binding at 0.3 µM [1]: 97%
- remaining binding at 0.3 µM [2]: 98%
- remaining binding at 0.3 µM [3]: 99%
- remaining binding at 0.3 µM [4]: 73%
- remaining binding at 0.3 µM [5]: 88%
- remaining binding at 0.3 µM [6]: 100%
- remaining binding at 0.3 µM [7]: 100%
- remaining binding at 0.3 µM [8]: 100%
- remaining binding at 0.3 µM [9]: 98%
- remaining binding at 0.3 µM [10]: 100%
- remaining binding at 0.3 µM [11]: 100%
- remaining binding at 0.3 µM [12]: 90%
- remaining binding at 0.3 µM [13]: 89%
- remaining binding at 0.3 µM [14]: 100%
- remaining binding at 0.3 µM [15]: 100%
- remaining binding at 0.3 µM [16]: 77%
- remaining binding at 0.3 µM [17]: 80%
- remaining binding at 0.3 µM [18]: 100%
- remaining binding at 0.3 µM [19]: 86%
- remaining binding at 0.3 µM [20]: 88%
- remaining binding at 0.3 µM [21]: 81%
- remaining binding at 0.3 µM [22]: 100%

SMILES: O=C(/C=C/c1cnccc1-c1ccc(F)cc1)Nc1ccc(CCc2nnco2)cc1 [T-418, (2E)-3-(4-(4-fluorophenyl)pyridin-3-yl)-N-(4-(2-(1,3,4-oxadiazol-2-yl)ethyl)phenyl)acrylamide]
- remaining binding at 0.3 µM ([1]; sheet T-418): 100%
- remaining binding at 0.3 µM ([2]; sheet T-418): 92%
- remaining binding at 0.3 µM ([3]; sheet T-418): 72%
- remaining binding at 0.3 µM ([4]; sheet T-418): 71%
- remaining binding at 0.3 µM ([5]; sheet T-418): 94%
- remaining binding at 0.3 µM ([6]; sheet T-418): 93%
- remaining binding at 0.3 µM ([7]; sheet T-418): 100%
- remaining binding at 0.3 µM ([8]; sheet T-418): 100%
- remaining binding at 0.3 µM ([9]; sheet T-418): 87%
- remaining binding at 0.3 µM ([10]; sheet T-418): 100%
- remaining binding at 0.3 µM ([11]; sheet T-418): 100%
- remaining binding at 0.3 µM ([12]; sheet T-418): 80%
- remaining binding at 0.3 µM ([13]; sheet T-418): 85%
- remaining binding at 0.3 µM ([14]; sheet T-418): 100%
- remaining binding at 0.3 µM ([15]; sheet T-418): 100%
- remaining binding at 0.3 µM ([16]; sheet T-418): 51%
- remaining binding at 0.3 µM ([17]; sheet T-418): 89%
- remaining binding at 0.3 µM ([18]; sheet T-418): 100%
- remaining binding at 0.3 µM ([19]; sheet T-418): 78%
- remaining binding at 0.3 µM ([20]; sheet T-418): 90%
- remaining binding at 0.3 µM ([21]; sheet T-418): 94%
- remaining binding at 0.3 µM ([22]; sheet T-418): 100%

— publication PMC5862592, “CDK8/19 inhibition induces premature G1/S transition and ATR-dependent cell death in prostate cancer cells” (Oncotarget, 2018)
